Results reported in the supplement of paper PMC10307832.

What was measured:
Assay in all cases: relative viability (nuclei count vs DMSO), 5 days (fraction); higher = more cells survive
NCI-H1437 = tested on: NCI-H1437
Summary of the method: (§1)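 Nuclei were stained with Hoechst during a one-step fixation (final 0.05% Triton X-100, 1% formaldehyde, 1 ug/ml Hoechst) carried out 5 days after dosing, then counted on 4× images. The cells, lung cancer lines in 1536-well plates, had been dosed by pin tool the day after seeding with one drug alone or a fixed anchor-drug dose plus five library-drug doses (not always all listed) in √10 steps. Relative viability is the nuclei count in treated wells divided by that in vehicle wells, and each value is the median of duplicate plates.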

NCI-H1650 = tested on: NCI-H1650
Summary of the method: as §1

NCI-H1666 = tested on: NCI-H1666
Summary of the method: as §1

NCI-H2009 = tested on: NCI-H2009
Summary of the method: as §1

NCI-H2170 = tested on: NCI-H2170
Summary of the method: as §1

NCI-H3122 = tested on: NCI-H3122
Summary of the method: as §1

NCI-H441 = tested on: NCI-H441
Summary of the method: as §1

NCI-H661 = tested on: NCI-H661
Summary of the method: as §1

NCI-H727 = tested on: NCI-H727
Summary of the method: as §1

NCI-H838 = tested on: NCI-H838
Summary of the method: as §1

PC-14 = tested on: PC-14
Summary of the method: as §1

SW 900 = tested on: SW 900
Summary of the method: as §1

CC1(C)CCC(c2ccc(Cl)cc2)=C(CN2CCN(c3ccc(C(=O)NS(=O)(=O)c4ccc(N[C@H](CCN5CCOCC5)CSc5ccccc5)c(S(=O)(=O)C(F)(F)F)c4)cc3)CC2)C1 [Navitoclax] + O=C(CCCCCCC(=O)Nc1ccccc1)NO [Vorinostat] (partner 1 µM)
relative viability (NCI-H1437; first compound 0.1581 µM): 0.88
relative viability (NCI-H1437; first compound 0.5 µM): 0.808
relative viability (NCI-H1650; first compound 0.005 µM): 0.5
relative viability (NCI-H1650; first compound 0.01581 µM): 0.66
relative viability (NCI-H1650; first compound 0.05 µM): 0.671
relative viability (NCI-H1650; first compound 0.1581 µM): 0.63
relative viability (NCI-H1650; first compound 0.5 µM): 0.651
relative viability (NCI-H1666; first compound 0.005 µM): 1
relative viability (NCI-H1666; first compound 0.01581 µM): 1.04
relative viability (NCI-H1666; first compound 0.05 µM): 1.03
relative viability (NCI-H1666; first compound 0.1581 µM): 0.999
relative viability (NCI-H1666; first compound 0.5 µM): 1.05
relative viability (NCI-H2009; first compound 0.005 µM): 0.719
relative viability (NCI-H2009; first compound 0.01581 µM): 0.88
relative viability (NCI-H2009; first compound 0.05 µM): 0.759
relative viability (NCI-H2009; first compound 0.1581 µM): 0.728
relative viability (NCI-H2009; first compound 0.5 µM): 0.719
relative viability (NCI-H2170; first compound 0.005 µM): 0.818
relative viability (NCI-H2170; first compound 0.01581 µM): 0.926
relative viability (NCI-H2170; first compound 0.05 µM): 0.736
relative viability (NCI-H2170; first compound 0.1581 µM): 0.771
relative viability (NCI-H2170; first compound 0.5 µM): 0.622
relative viability (NCI-H3122; first compound 0.005 µM): 1.05
relative viability (NCI-H3122; first compound 0.01581 µM): 0.807
relative viability (NCI-H3122; first compound 0.05 µM): 1.06
relative viability (NCI-H3122; first compound 0.1581 µM): 1.02
relative viability (NCI-H3122; first compound 0.5 µM): 0.839
relative viability (NCI-H441; first compound 0.005 µM): 0.651
relative viability (NCI-H441; first compound 0.01581 µM): 0.961
relative viability (NCI-H441; first compound 0.05 µM): 0.982
relative viability (NCI-H441; first compound 0.1581 µM): 0.694
relative viability (NCI-H441; first compound 0.5 µM): 0.725
relative viability (NCI-H661; first compound 0.005 µM): 0.769
relative viability (NCI-H661; first compound 0.01581 µM): 0.727
relative viability (NCI-H661; first compound 0.05 µM): 0.809
relative viability (NCI-H661; first compound 0.1581 µM): 0.763
relative viability (NCI-H661; first compound 0.5 µM): 0.772
relative viability (NCI-H727; first compound 0.005 µM): 1.28
relative viability (NCI-H727; first compound 0.01581 µM): 1.34
relative viability (NCI-H727; first compound 0.05 µM): 0.901
relative viability (NCI-H727; first compound 0.1581 µM): 1.12
relative viability (NCI-H727; first compound 0.5 µM): 1.16
relative viability (NCI-H838; first compound 0.005 µM): 0.678
relative viability (NCI-H838; first compound 0.01581 µM): 0.73
relative viability (NCI-H838; first compound 0.05 µM): 0.76
relative viability (NCI-H838; first compound 0.1581 µM): 0.73
relative viability (NCI-H838; first compound 0.5 µM): 0.667
relative viability (PC-14; first compound 0.005 µM): 0.746
relative viability (PC-14; first compound 0.01581 µM): 0.794
relative viability (PC-14; first compound 0.05 µM): 0.59
relative viability (PC-14; first compound 0.1581 µM): 0.712
relative viability (PC-14; first compound 0.5 µM): 0.687
relative viability (SW 900; first compound 0.005 µM): 0.432
relative viability (SW 900; first compound 0.01581 µM): 0.573
relative viability (SW 900; first compound 0.1581 µM): 0.478
relative viability (SW 900; first compound 0.5 µM): 0.365
